Data on three compounds can be found in patent publication EP1709956A1, “Hair treatment composition comprising betains” (Henkel Kommanditgesellschaft auf Aktien, priority 2001, dated 2002).

Molecules are shown by their SMILES.

The experiment relates to humane Haarfollikel. As to the kind of experiment: in vitro model of isolated human scalp hair follicles (Philpott): hair shaft elongation in organ culture. Format: cell-based. The conditions noted are these: 9 days in culture. The source says: Auf diese Publikation wird ausdrücklich Bezug genommen. Gemäß dieser Veröffentlichung wurde wie folgt verfahren: a. Isolation humaner Kopfhauthaarfollikel Es wird okzipitale, humane Vollhaut isoliert. b. Aufreinigung der isolierten humanen Kopfhautfollikel Die herausgezupften Haarfollikel werden in ein frisches Isolationsmedium überführt, darin gesammelt und anschließend mehrfach unter sterilen Bedingungen mit frischem Medium gewaschen. Je drei Haarfollikel werden randomisiert in ein Well einer 24-Well Platte mit 500µl kompletten Mediums (verwendet wird Williams E Medium, supplementiert mit 2 mM L-Glutamin, 10 µg/ml Hydrokortison, 10 µg/ml Insulin, 10 µg/ml Penizillin und 10 µg/ml Streptomycin). Vor der Zugabe der zu testenden Substanzen wurden die Haarfollikel für 30 Minuten im Inkubator präinkubiert. c. Testung der Substanzen Es werden Carnitin, Carnitintartrat sowie Minoxidil als Vergleichssubstanz mit bekannter Wirkung geprüft. Die Prüfkonzentration für Carnitin und Carnitiontartrat beträgt jeweils 50 µmol/1. Die Haarfollikel werden für 9 Tage in Kultur gehalten. Das Medium inklusive der Testsubstanzen wird täglich gewechselt. Die Länge der jeweiligen Haarschäfte wird am 9. Tag mit Hilfe eines Meßokulares am Dissektionsmikroskop gemessen und dokumentiert. Die Prüfung von Minoxidil ist eine Positivkontrolle, weil Minoxidil in der Literatur bereits als wachstumsstimulierend für humane Haarfollikel beschrieben wird. […] Hierzu sind folgende Änderungen gegenüber der Prüfung des Carnitines und des Carnitintartrates notwendig: Testkonzentration des Minoxidil 10^-5 mol/l in 1 % Ethanol, Ersatz des Streptomycines durch 10µg/ml Ciprofloxacin. Zur statistischen Auswertung der Ergebnisse wird die Länge der Haarschäfte in % der Gesamtdurchschnittslänge aller Haarfollikel am Tage 0 berechnet. Alle Haarfollikel einer Gruppe werden gepoolt und der Mittelwert sowie die Standardabweichung statistisch nach üblichen Methoden berechnet. Signifikante Unterschiede werden mit dem Student T-Test berechnet. d.

Where [1] appears, read: 50 µmol/l, medium changed daily, shaft length measured on day 9, in % of mean length of all follicles on day 0.

In the case of `C[N+](C)(C)CC(O)CC(=O)[O-]` (stereo not drawn) [Carnitin], under setting [1], the “Längenwachstum des Haarschaftes in %” value was determined as 67%. Take `C[N+](C)(C)CC(O)CC(=O)[O-]` (stereo not drawn) [Carnitintartrat]: the “Längenwachstum des Haarschaftes in %” value under setting [1] is on record as 87%.

Consider `Nc1cc(N2CCCCC2)nc(N)[n+]1[O-]` [Minoxidil, reference compound], for which the “Längenwachstum des Haarschaftes in %” value (positive control, 10^-5 mol/l in 1 % Ethanol, streptomycin replaced by 10 µg/ml Ciprofloxacin, measured on day 9) stood at 34%.
